Test results reported in patent US20060189566A1, “Muscle building agent and preventive or remedy for muscle weakening” (priority 2003, published 2006).

How the values were obtained:
soleus muscle [1] = experiment: Wet weight of soleus muscle (absolute, atrophy rate, per body weight) in cast-immobilized rats; format: in vivo, rat; details: mean ± SD; for Wet Weight of Soleus Muscle, Immobilized / Wet Weight of Soleus Muscle per Body Weight, Immobilized: immobilized leg; for Wet Weight of Soleus Muscle, Immobilized / Wet Weight of Soleus Muscle, Non-immobilized: 1 wt % CDP-choline feed; for Wet Weight of Soleus Muscle, Non-immobilized / Wet Weight of Soleus Muscle per Body Weight, Non-immobilized: non-immobilized leg
Method: (§1) As test animals, 13 female 9-week-old rats of Fischer 344 strain (purchased from SLC Inc.) were used. The rats were preliminarily bred for 3 days in a chamber in which the temperature was adjusted to 22° C. under a bright-dark cycle where 07:00 to 19:00 was the bright period, and access to water and feed was ad libitum. After the preliminary breeding, the rats were divided into two groups, and a control feed was given to a control group consisting of 7 rats while a feed comprising CDP-choline (manufactured by Kyowa Hakko Kogyo Co., Ltd.) having the composition shown in Table 1 (hereinafter referred to as a CDP-choline feed) was given to the other group consisting of 6 rats for one day. Then, the right hind limb of each rat was immobilized in plaster cast under anesthesia with pentobarbital, followed by further feeding for one week under the above conditions. Thereafter, the rats were subjected to analysis with regard to the items shown below. In the test, two muscles, i.e., plantar muscle and soleus muscle located at the lower hind limbs of a rat, were used. Soleus muscle is a representative slow skeletal muscle in lower limbs where 80 to 90% of total muscle fibers are slow muscle fibers, and plantar muscle is a typical fast skeletal muscle where about 95% of total muscle fibers are fast muscle fibers. The rat was killed after body weight measurement, and the soleus muscle and plantar muscle of both the right and left lower hind limbs were quickly excised and washed with a physiological saline solution. After extraneous connective tissues, tendons, nerves, etc. were removed, the muscle wet weights of soleus muscle and plantar muscle were measured. The relative wet weight of muscle immobilized in a cast was determined for each rat based on the wet weight of muscle which was not immobilized in a cast, taken as 100, and the decrease in muscle weight was expressed as the atrophy rate. The wet weight of muscle relative to body weight was calculated by measuring the wet weight of both right and left soleus muscles and plantar muscles and dividing the obtained value by body weight. The wet weight of muscle per body weight excludes the influence of the difference in body weight on each muscle wet weight and reflects the muscle amount per body weight. The wet weight of soleus muscle per body weight is shown in Table 7, and the wet weight of plantar muscle per body weight is shown in Table 8.

plantar muscle = experiment: Wet weight of plantar muscle (absolute, atrophy rate, per body weight) in cast-immobilized rats; format: in vivo, rat; details: mean ± SD; for Atrophy Rate (plantar muscle): decrease of immobilized muscle wet weight relative to non-immobilized taken as 100; for Wet Weight of Plantar Muscle, Immobilized / Wet Weight of Plantar Muscle per Body Weight, Immobilized: immobilized leg
Method: as §1

soleus muscle [2] = experiment: Protein content of soleus muscle in cast-immobilized rats; format: in vivo, rat; details: mean ± SD; for Protein Content of Soleus Muscle, Non-immobilized: non-immobilized leg
Method: As test animals, 13 female 9-week-old rats of Fischer 344 strain (purchased from SLC Inc.) were used. The rats were preliminarily bred for 3 days in a chamber in which the temperature was adjusted to 22° C. under a bright-dark cycle where 07:00 to 19:00 was the bright period, and access to water and feed was ad libitum. After the preliminary breeding, the rats were divided into two groups, and a control feed was given to a control group consisting of 7 rats while a feed comprising CDP-choline (manufactured by Kyowa Hakko Kogyo Co., Ltd.) having the composition shown in Table 1 (hereinafter referred to as a CDP-choline feed) was given to the other group consisting of 6 rats for one day. Then, the right hind limb of each rat was immobilized in plaster cast under anesthesia with pentobarbital, followed by further feeding for one week under the above conditions. Thereafter, the rats were subjected to analysis with regard to the items shown below. Soleus muscle was finely cut in a 1.15% potassium chloride solution and a homogenate thereof was prepared using a glass homogenizer. After the homogenate was appropriately diluted, its protein content was measured using the Protein Assay Kit of Biorad. A calibration curve was prepared using a 2 mg/ml BSA solution.

soleus muscle [3] = experiment: Degradation rate of muscle plasma protein of soleus muscle (tyrosine release); format: in vivo, rat; details: 2 hours incubation in Krebs-Henseleit bicarbonate buffer, mean ± SD; for Decomposition Rate of Muscle Plasma Protein of Soleus Muscle, Tyrosine, Non-immobilized: non-immobilized leg
Method: As test animals, 13 female 9-week-old rats of Fischer 344 strain (purchased from SLC Inc.) were used. The rats were preliminarily bred for 3 days in a chamber in which the temperature was adjusted to 22° C. under a bright-dark cycle where 07:00 to 19:00 was the bright period, and access to water and feed was ad libitum. After the preliminary breeding, the rats were divided into two groups, and a control feed was given to a control group consisting of 7 rats while a feed comprising CDP-choline (manufactured by Kyowa Hakko Kogyo Co., Ltd.) having the composition shown in Table 1 (hereinafter referred to as a CDP-choline feed) was given to the other group consisting of 6 rats for one day. Then, the right hind limb of each rat was immobilized in plaster cast under anesthesia with pentobarbital, followed by further feeding for one week under the above conditions. Thereafter, the rats were subjected to analysis with regard to the items shown below. Weighed soleus muscle was pre-incubated for 30 minutes in a Krebs-Henseleit bicarbonate buffer under aeration with […]. The muscle was then transferred to fresh Krebs-Henseleit bicarbonate buffer, and incubated for 2 hours. The concentration of tyrosine in the buffer was measured, whereby the degradation rate of muscle plasma protein was calculated. The concentration of tyrosine was measured by the fluorescence method of […], et al. using 1-nitroso-2-naphthol [J. Lab. Clin. Med., 50, 733 (1957)] (excitation wavelength: 435 nm; fluorescence wavelength: 545 nm). In order to prepare a calibration curve, a 5 nmol/ml tyrosine solution prepared as a standard solution was appropriately diluted and the relationship between its concentration and fluorescence intensity was plotted. By using the calibration curve thus prepared, the concentration of tyrosine in the buffer tested was determined from its fluorescence intensity.

C2C12 cells = experiment: Increase of intracellular protein in differentiated C2C12 cells (Methylene Blue method); format: cell-based, mouse; details: 3 days; for Increase Rate of Intracellular Protein: control d0 = 0, control d3 = 100
Method: C2C12 cells were purchased from Dainippon Pharmaceutical Co., Ltd. Culturing was carried out according to the method of Craig, et al. [Methods in Cell Biology, 52, 85 (1998)]. A medium for growth was prepared by addition of 50 ml of FBS (manufactured by Gibco; Cat. No. 10099-141) and 5 ml of penicillin-streptomycin (manufactured by Gibco; Cat. No. 15140-122) to 500 ml of D-MEM medium (manufactured by Gibco; Cat. No. 11885-084). A medium for differentiation was prepared by addition of 10 ml of inactivated horse serum (manufactured by Gibco; Cat. No. 26050-088) and 5 ml of penicillin-streptomycin to 500 ml of the D-MEM medium. C2C12 cells were seeded and cultured in a 75-cm^2 flask containing 15 ml of the medium for growth and were subcultured before reaching confluence. Culturing was carried out in a CO2 incubator under 5% CO2 concentration and 100% relative humidity. The cell suspension diluted to 5×10^4 cells/ml with the medium for growth was added to each well of type I collagen-coated 96-well plate (Iwaki; Cat. No. 4860-010) in an amount of 100 μl. After confirming that the growth was uniform, the medium was replaced by the differentiation medium. Myogenesis was confirmed under a microscope after culturing for 3 days, and then a CDP-choline-containing PBS (−) solution was added to the medium until its final concentration reached 1 mg/ml or 0.1 mg/ml, followed by further culturing. […] The amount of intracellular protein was measured according to the method of Oliver, et al. [Journal of Cell Science, 92, 513 (1989)]. […] After the solution was appropriately diluted, the absorption at 650 nm was measured using a microplate reader. To determine the rate of increase of intracellular protein, the value of the test group (group to which CDP-choline was added) after culturing for 3 days was calculated based on the value before addition of CDP-choline (do) taken as 0 and the concentration of intracellular protein in the control group (group to which no CDP-choline was added) after culturing for 3 days (d3) taken as 100.

C[N+](C)(C)CCOP(=O)(O)OP(=O)([O-])OC[C@H]1O[C@@H](n2ccc(N)nc2=O)[C@H](O)[C@@H]1O [CDP-Choline, Cytidine diphosphate choline]
Atrophy Rate (soleus muscle) (soleus muscle [1]; decrease of immobilized muscle wet weight relative to non-immobilized taken as 100): 21.0 ± 6.5% | Wet Weight of Soleus Muscle, Immobilized (soleus muscle [1]): 61.0 ± 5.2 mg | Wet Weight of Soleus Muscle, Immobilized (soleus muscle [1]; listed as CDP-choline): no difference in wet weight of muscle | Wet Weight of Soleus Muscle per Body Weight, Immobilized (soleus muscle [1]): 0.428 ± 0.027 mg/g body weight | Wet Weight of Soleus Muscle per Body Weight, Immobilized (soleus muscle [1]; listed as CDP-choline): no difference | Wet Weight of Soleus Muscle, Non-immobilized (soleus muscle [1]): 77.2 ± 3.9 mg | Wet Weight of Soleus Muscle, Non-immobilized (soleus muscle [1]; listed as CDP-choline): no difference in wet weight of muscle | Wet Weight of Soleus Muscle per Body Weight, Non-immobilized (soleus muscle [1]): 0.542 ± 0.030 mg/g body weight | Wet Weight of Soleus Muscle per Body Weight, Non-immobilized (soleus muscle [1]; listed as CDP-choline): no difference | Atrophy Rate (plantar muscle) (plantar muscle): 15.8 ± 5.8% | Atrophy Rate (plantar muscle) (plantar muscle; listed as CDP-choline): significantly lower | Wet Weight of Plantar Muscle, Immobilized (plantar muscle; 1 wt % CDP-choline feed): 104.0 ± 2.7 mg | Wet Weight of Plantar Muscle, Immobilized (plantar muscle; 1 wt % CDP-choline feed, listed as CDP-choline): significantly higher than the control group | Wet Weight of Plantar Muscle per Body Weight, Immobilized (plantar muscle): 0.731 ± 0.029 mg/g body weight | Wet Weight of Plantar Muscle per Body Weight, Immobilized (plantar muscle; listed as CDP-choline): significantly higher than the control group | Wet Weight of Plantar Muscle, Non-immobilized (plantar muscle; non-immobilized leg, 1 wt % CDP-choline feed): 123.8 ± 7.4 mg | Wet Weight of Plantar Muscle per Body Weight, Non-immobilized (plantar muscle; non-immobilized leg): 0.870 ± 0.052 mg/g body weight | Protein Content of Soleus Muscle, Immobilized (soleus muscle [2]; immobilized leg): 128.4 ± 10.0 mg protein/g tissue | Protein Content of Soleus Muscle, Non-immobilized (soleus muscle [2]): 173.2 ± 15.0 mg protein/g tissue | Protein Content of Soleus Muscle, Non-immobilized (soleus muscle [2]; listed as CDP-choline): significantly higher than the control group | Decomposition Rate of Muscle Plasma Protein of Soleus Muscle, Tyrosine, Immobilized (soleus muscle [3]; immobilized leg): 322.1 ± 98.0 nmol/g tissue/2 hours | Decomposition Rate of Muscle Plasma Protein of Soleus Muscle, Tyrosine, Non-immobilized (soleus muscle [3]): 135.5 ± 50.1 nmol/g tissue/2 hours | Decomposition Rate of Muscle Plasma Protein of Soleus Muscle, Tyrosine, Non-immobilized (soleus muscle [3]; listed as CDP-choline): significantly lower than the control group | Increase Rate of Intracellular Protein (C2C12 cells; CDP-choline 0.1 mg/ml): 134 | Increase Rate of Intracellular Protein (C2C12 cells; CDP-choline 1 mg/ml): 141 | Amount of intracellular protein in C2C12 cells (C2C12 cells; CDP-choline 0.1 and 1 mg/ml): increased in a CDP-choline concentration dependent manner
